Reference: PMC11587507, “The Importance of Stereochemistry in 5-HT7R Modulation—A Case Study of Hydantoin Derivatives” (ACS Chemical Neuroscience, 2024)

Tests used:
[1] = biological target: dopamine D2LR (Homo sapiens, UniProt P14416); experiment: Radioligand binding assay, [3H]-raclopride displacement; conditions: mean ± SD from two independent measurements; read-out: Ki D2
Procedure: (§1) Cell pellets were thawed and homogenized in 10 vol of assay buffer using an Ultra Turrax tissue homogenizer and centrifuged twice at 35 000 g for 15 min at 4 °C, with incubation for 15 min at 37 °C in between. The composition of the assay buffers was as follows: for 5-HT1AR: 50 mM Tris HCl, 0.1 mM EDTA, 4 mM MgCl2, 10 μM pargyline and 0.1% ascorbate; for 5-HT2AR: 50 mM Tris HCl, 0.1 mM EDTA, 4 mM MgCl2 and 0.1% ascorbate; for 5- HT7bR: 50 mM Tris HCl, 4 mM MgCl2, […] and 0.1% ascorbate; and for dopamine D2LR: 50 mM Tris HCl, 1 mM EDTA, 4 mM MgCl2, 120 mM NaCl, 5 mM KCl, 1.5 mM CaCl2 and 0.1% ascorbate. All assays were incubated in a total volume of […] in 96-well microtiter plates for 1 h at 37 °C, except 5-HT2AR which was incubated at 27 °C. The process of equilibration was terminated by rapid filtration through Unifilter plates with a 96-well cell harvester, and radioactivity retained on the filters was quantified on a Microbeta plate reader (PerkinElmer, USA). For displacement studies, the assay samples contained as radioligands (PerkinElmer, USA): 2.5 nM [^3H]-8-OH-DPAT (135.2 Ci/mmol) for 5-HT1AR; 1 nM [3H]-ketanserin (53.4 Ci/mmol) for 5- HT2AR; 0.8 nM [3H]-5- CT (39.2 Ci/mmol) for 5-HT7R or 2.5 nM [3H]-raclopride (72 Ci/mmol) for D2LR. Nonspecific binding was defined with […] of 5-HT in 5-HT7R binding experiments, whereas […] were used in 5-HT2AR and D2L assays, respectively. Each compound was tested in triplicate at 7 concentrations (10^–10–10^–4 M). The inhibition constants (Ki) were calculated using the Cheng–Prusoff equation.[48] Results were expressed as means of at least two separate experiments.

[2] = biological target: 5-HT2AR (Homo sapiens, UniProt P28223); experiment: Radioligand binding assay, [3H]-ketanserin displacement; conditions: mean ± SD from two independent measurements; read-out: Ki 5-HT2A
Procedure: as §1

[3] = biological target: T1, 5-HT7R (Homo sapiens, UniProt P34969); experiment: Radioligand binding assay, [3H]-5-CT displacement; conditions: for Ki: mean ± SD from two independent measurements, read-out: Ki 5-HT7
Procedure: as §1
Target sequence in this assay (P34969 1-432): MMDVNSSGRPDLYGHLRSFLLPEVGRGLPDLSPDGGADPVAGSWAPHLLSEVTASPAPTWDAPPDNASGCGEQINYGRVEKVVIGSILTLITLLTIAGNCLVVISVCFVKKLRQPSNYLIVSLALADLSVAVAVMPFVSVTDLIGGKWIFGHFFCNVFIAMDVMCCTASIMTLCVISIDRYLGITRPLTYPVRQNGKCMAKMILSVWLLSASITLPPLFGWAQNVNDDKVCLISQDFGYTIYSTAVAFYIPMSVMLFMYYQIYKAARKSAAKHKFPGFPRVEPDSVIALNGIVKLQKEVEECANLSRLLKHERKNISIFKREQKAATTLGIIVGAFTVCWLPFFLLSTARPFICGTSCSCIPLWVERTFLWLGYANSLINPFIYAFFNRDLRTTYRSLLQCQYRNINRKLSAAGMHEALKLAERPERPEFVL

[4] = biological target: T2, 5-HT1AR (Homo sapiens, UniProt P08908); experiment: Radioligand binding assay, [3H]-8-OH-DPAT displacement; conditions: mean ± SD from two independent measurements; read-out: Ki 5-HT1A
T2 sequence (P08908 1-422): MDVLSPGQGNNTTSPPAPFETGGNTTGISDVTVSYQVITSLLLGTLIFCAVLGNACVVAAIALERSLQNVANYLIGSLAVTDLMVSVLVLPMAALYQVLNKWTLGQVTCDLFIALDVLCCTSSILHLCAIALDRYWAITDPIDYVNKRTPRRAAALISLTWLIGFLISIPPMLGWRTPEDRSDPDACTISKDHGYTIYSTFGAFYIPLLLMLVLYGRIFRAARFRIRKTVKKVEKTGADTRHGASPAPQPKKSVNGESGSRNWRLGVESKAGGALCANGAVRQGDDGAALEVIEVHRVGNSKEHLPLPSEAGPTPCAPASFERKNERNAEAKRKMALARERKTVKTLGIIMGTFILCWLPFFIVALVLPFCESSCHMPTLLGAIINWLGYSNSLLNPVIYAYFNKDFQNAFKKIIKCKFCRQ
Procedure: as §1

[5] = test system: immobility time; experiment: Forced swim test (FST, Porsolt's test) in mice; assay type: in vivo; conditions: 60 min before test
Procedure: (§2) The behavioral experiments were performed on male BalbC mice weighing 20–25 g, n = 333. The animals were purchased from the Animal House at the Faculty of Pharmacy, Jagiellonian University Medical College, Krakow, Poland. Mice were kept in groups of ten in Makrolon type 3 cages (dimensions 26.5 × 15 × 42 cm). The animals were kept in an environmentally controlled room (ambient temperature 22 ± 2 °C; relative humidity 50–60%; 12:12 light: dark cycle; and lights on at 8:00). They were allowed to acclimatize with the environment enriched by nesting material, tooth grinding material, houses, and toys for 1 week before commencement of the experiments. During acclimatization, mice were accustomed to the presence of female experimenters and their appropriate manner of animals’ restraint, i.e., cupping each separate mouse in open hands, according to the 3Rs recommendations (handling).[50],[51] Standard laboratory food (Sniff M-Z) and filtered water were freely available. All the experiments were conducted in the light phase between 9 AM and 2 PM. Experimental groups consisted of 6–10 randomly selected animals, depending on the experiment, and each animal was used only once. The experiments were performed by an observer who was unaware of the treatment administered. All the experimental procedures with mice were carried out under EU Directive 2010/63/EU and were approved by the Local Ethics Commission for Animal Experiments of Jagiellonian University in Krakow (Approval nos.:297/2019).
(§3) Compounds were injected once intraperitoneally (i.p.) 60 min before tests, at a volume of 10 mL/kg. Control animals received a vehicle injection according to the same schedule.
The FST experiment was carried out according to the method of Porsolt et al.[52] The total duration of immobility was recorded during the last 4 min of this 6 min period. The reduction of immobility time compared to the control was a measure of antidepressant properties of the tested compound. A mouse was regarded as immobile when it remained floating on water, making only small movements to keep its head above it.

[6] = test system: punished crossings; experiment: Four-plate test (FPT) in mice; assay type: in vivo
Procedure: as §2, §3
The four-plate apparatus (Bioseb, Pinellas Park, USA) was used for tests. Following a 15 s habituation period, the animal’s motivation to explore a novel environment is suppressed by an electric foot shock (0.8 mA, 0.5 s) every time it moves from one plate to another during a 1 min test session. This action is referred to as a “punished crossing” and is followed by a 3 s shock interval, during which the animal can move across plates without receiving a shock.[53]

[7] = test system: locomotor activity; experiment: Spontaneous locomotor activity in mice; assay type: in vivo
Procedure: as §2, §3
Locomotor activity was recorded with an Opto M3 multichannel activity monitor (Columbus Instruments, Columbus, USA). […] According to the 3Rs recommendations,[54] locomotor activity was assessed for the minimal active doses obtained in FST and/or FPT to ensure that detected antidepressant-/anxiolytic-like effects are not the result of increased motility of mice.

[8] = biological target: T3, NK1 (Homo sapiens, UniProt P25103); experiment: NK1 screening at 1 µM (Eurofins Cerep); assay type: cell-based; conditions: read-out: NK1 % inhibition of control agonist response
T3 construct: Eurofins Cerep
Procedure: (§4) 1.In vitro evaluation towards another related protein target (GABA, NK 1)
(§5) Table S2. Affinity results to GABA and NK 1 […]
(§6) Screening at 1 µM Screening at 1 µM
(§7) (% inhibition of control (% of inhibtion of control agonist response) specific binding) […]
(§8) adata are presented as the mean ± SD from two independent measurements
(§9) The above biological screening have been performed at Eurofins Cerep (2, rue du Professeur GARGOUÏL, B.P. 30001, 86 600 Celle l'Evescault, France according to previously described […]
(§10) Tsuji, A. et al. (1988), Antimicrob. Agents Chemother., 32: 190-194.
(§11) Eistetter, H.R. et al. (1992), Glia, 6: 89-95.
(§12) Detailed parameters for NK1 assay:
(§13) Detailed parameters for GABA (non-specific) assay: […]

[9] = test system: GABA (non-specific); experiment: GABA (non-specific) binding screening at 1 µM (Eurofins Cerep)
Procedure: as §4, §5, §6, §7, §8, §9, §10, §11, §12, §13

[10] = biological target: T1, 5-HT7R; experiment: cAMP functional assay (HTRF), antagonist effect, CHO cells; assay type: cell-based
Procedure: The cAMP concentration was measured using the HTRF method. Adenylate cyclase activity was expressed as the percentage of the maximal effect obtained with 300 nM serotonin. The compounds were tested at 7 concentrations (10^–12–10^–6 M) in the h5-HT7 antagonist effect.
Target sequence in this assay (P34969 1-445 isoform P34969-2): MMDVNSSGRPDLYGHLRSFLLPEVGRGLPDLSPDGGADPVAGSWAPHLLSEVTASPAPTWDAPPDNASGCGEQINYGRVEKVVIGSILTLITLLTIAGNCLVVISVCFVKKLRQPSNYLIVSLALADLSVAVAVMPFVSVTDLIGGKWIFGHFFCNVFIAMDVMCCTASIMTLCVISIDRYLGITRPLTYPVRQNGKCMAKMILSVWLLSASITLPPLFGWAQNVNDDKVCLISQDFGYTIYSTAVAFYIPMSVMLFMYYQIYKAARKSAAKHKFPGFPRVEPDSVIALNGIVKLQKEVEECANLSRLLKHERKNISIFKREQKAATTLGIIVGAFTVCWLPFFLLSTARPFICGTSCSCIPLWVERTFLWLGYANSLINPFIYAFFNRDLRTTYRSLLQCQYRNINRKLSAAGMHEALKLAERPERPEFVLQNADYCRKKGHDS

dopamine D2LR, sequence (P14416 whole entry): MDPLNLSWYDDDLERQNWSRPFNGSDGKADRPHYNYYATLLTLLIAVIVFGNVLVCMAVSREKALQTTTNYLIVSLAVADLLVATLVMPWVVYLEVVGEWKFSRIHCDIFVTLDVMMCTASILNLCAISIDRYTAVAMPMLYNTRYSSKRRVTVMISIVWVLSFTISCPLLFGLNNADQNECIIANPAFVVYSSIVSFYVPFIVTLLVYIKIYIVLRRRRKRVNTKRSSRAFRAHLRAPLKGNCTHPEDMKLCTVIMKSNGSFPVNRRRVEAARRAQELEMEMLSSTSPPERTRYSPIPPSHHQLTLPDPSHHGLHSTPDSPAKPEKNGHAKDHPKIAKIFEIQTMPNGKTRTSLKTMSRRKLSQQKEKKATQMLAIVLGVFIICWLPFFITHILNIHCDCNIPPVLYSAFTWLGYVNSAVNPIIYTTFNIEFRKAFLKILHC
5-HT2AR, sequence (P28223 whole entry): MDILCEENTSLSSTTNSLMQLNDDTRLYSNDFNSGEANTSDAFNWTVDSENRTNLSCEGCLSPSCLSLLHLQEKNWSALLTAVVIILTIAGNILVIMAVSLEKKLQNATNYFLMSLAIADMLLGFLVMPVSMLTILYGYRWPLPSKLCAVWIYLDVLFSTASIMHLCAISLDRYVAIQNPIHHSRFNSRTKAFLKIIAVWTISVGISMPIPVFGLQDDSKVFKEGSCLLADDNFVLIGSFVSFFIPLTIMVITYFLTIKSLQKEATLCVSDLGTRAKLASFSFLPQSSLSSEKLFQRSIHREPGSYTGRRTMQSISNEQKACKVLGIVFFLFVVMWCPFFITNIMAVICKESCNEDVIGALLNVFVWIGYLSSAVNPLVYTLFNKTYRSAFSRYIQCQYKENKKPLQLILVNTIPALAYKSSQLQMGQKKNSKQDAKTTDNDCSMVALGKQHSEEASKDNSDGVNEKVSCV
T3 sequence (P25103 whole entry): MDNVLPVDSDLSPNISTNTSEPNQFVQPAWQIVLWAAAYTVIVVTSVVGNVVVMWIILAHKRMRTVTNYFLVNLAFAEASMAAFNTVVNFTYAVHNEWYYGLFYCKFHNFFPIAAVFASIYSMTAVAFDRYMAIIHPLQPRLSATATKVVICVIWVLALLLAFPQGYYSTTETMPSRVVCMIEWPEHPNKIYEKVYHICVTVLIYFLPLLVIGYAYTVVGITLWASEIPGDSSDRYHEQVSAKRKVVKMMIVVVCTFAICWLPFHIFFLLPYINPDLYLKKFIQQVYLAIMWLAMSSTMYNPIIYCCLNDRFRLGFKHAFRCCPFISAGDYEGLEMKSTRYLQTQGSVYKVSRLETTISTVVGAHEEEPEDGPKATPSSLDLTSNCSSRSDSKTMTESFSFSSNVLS

## C[C@]1(c2ccc(F)cc2)NC(=O)N(C[C@@H](O)CN2CCN(C(c3ccccc3)c3ccccc3)CC2)C1=O [Compound 6.1, (R)-3-((S)-3-(4-Benzhydrylpiperazin-1-yl)-2-hydroxypropyl)-5-(4-fluorophenyl)-5-methylimidazolidine-2,4-dione]
[1]
  Ki: 463 ± 75 nM
[2]
  Ki: 12300 nM
[3]
  Ki: 2900 ± 461 nM

## COc1ccccc1N1CCN(C[C@@H](O)CN2C(=O)N[C@](C)(c3ccc(F)cc3)C2=O)CC1 [Compound 5.2, (R)-5-(4-Fluorophenyl)-3-((R)-2-hydroxy-3-(4-(2-methoxyphenyl)piperazin-1-yl)propyl)-5-methylimidazolidine-2,4-dione]
[1]
  Ki: 712 ± 101 nM
[4]
  Ki: 1880 ± 351 nM
[2]
  Ki: 41100 nM

## COc1ccccc1N1CCN(C[C@H](O)CN2C(=O)N[C@@](C)(c3ccc(F)cc3)C2=O)CC1 [Compound 5.3, (S)-5-(4-Fluorophenyl)-3-((S)-2-hydroxy-3-(4-(2-methoxyphenyl)piperazin-1-yl)propyl)-5-methylimidazolidine-2,4-dione]
[1]
  Ki: 1110 ± 137 nM
[4]
  Ki: 219 ± 43 nM

## COc1ccccc1N1CCN(C[C@@H](O)CN2C(=O)N[C@@](C)(c3ccc(F)cc3)C2=O)CC1 [Compound 5.4, (S)-5-(4-Fluorophenyl)-3-((R)-2-hydroxy-3-(4-(2-methoxyphenyl)piperazin-1-yl)propyl)-5-methylimidazolidine-2,4-dione]
[1]
  Ki: 888 ± 97 nM
[4]
  Ki: 306 ± 71 nM
[2]
  Ki: 21800 nM
[5]; 5 mg/kg i.p.
  decrease of immobility time vs vehicle: 25%
[5]; 10 mg/kg i.p.
  decrease of immobility time vs vehicle: 20%
[6]; i.p., all doses tested
  anxiolytic-like activity: inactive
[7]; 5 mg/kg i.p.
  locomotor activity number of crossings ± SEM during 3–6 min: 138.75 ± 36.61; NS
  locomotor activity number of crossings ± SEM during 1 min: 18.50 ± 8.00; NS
  locomotor activity number of crossings ± SEM during 60 min: 716.25 ± 117.75; p < 0.001
[8]
  inhibition at 1 µM: 2.9%
[9]
  GABA (non-specific) % of inhibition of control specific binding: 7%

## C[C@@]1(c2ccc(F)cc2)NC(=O)N(C[C@H](O)CN2CCN(C(c3ccccc3)c3ccccc3)CC2)C1=O [Compound 6.4, (S)-3-((R)-3-(4-Benzhydrylpiperazin-1-yl)-2-hydroxypropyl)-5-(4-fluorophenyl)-5-methylimidazolidine-2,4-dione]
[1]
  Ki: 511 ± 96 nM
[4]
  Ki: 8930 ± 1840 nM
[2]
  Ki: 5790 ± 1070 nM
[3]
  Ki: 8 ± 3 nM
[3]; ratio of Ki values
  fold higher 5-HT7R affinity in comparison to 2: ~10 fold
[10]; cAMP functional test
  intrinsic activity at 5-HT7R: antagonists
[10]; cAMP, CHO cells, h5-HT7 antagonist effect vs 300 nM serotonin
  IC50: 113 ± 25 nM
[10]; cAMP, CHO cells, h5-HT7 antagonist effect, read-out: Kb ± SEM
  Kb: 14 ± 3 nM
[5]; 2.5 mg/kg i.p.
  decrease of immobility time vs vehicle: 29%
[6]; 5 mg/kg i.p.
  anxiolytic-like activity: did not reach significant levels
[6]; doses of 1.25, 2.5 and 10 mg/kg i.p.
  anxiolytic-like activity: active
[6]; i.p., active doses
  increase of number of punished crossings vs vehicle: about 60%
[7]; 1.25 mg/kg i.p.
  locomotor activity number of crossings ± SEM during 3–6 min: 63.75 ± 25.93; NS
  locomotor activity number of crossings ± SEM during 1 min: 4.25 ± 0.46; NS
  locomotor activity number of crossings ± SEM during 60 min: 694.25 ± 78.90; NS
[7]; 2.5 mg/kg i.p.
  locomotor activity number of crossings ± SEM during 3–6 min: 105.75 ± 49.57; NS
  locomotor activity number of crossings ± SEM during 60 min: 922.50 ± 74.78; p < 0.001
[8]
  inhibition at 1 µM: -4.4%
[9]
  GABA (non-specific) % of inhibition of control specific binding: 26%

## C[C@]1(c2ccc(F)cc2)NC(=O)N(C[C@H](O)CN2CCN(C(c3ccccc3)c3ccccc3)CC2)C1=O [Compound 6.2, (R)-3-((R)-3-(4-Benzhydrylpiperazin-1-yl)-2-hydroxypropyl)-5-(4-fluorophenyl)-5-methylimidazolidine-2,4-dione]
[1]
  Ki: 1520 ± 331 nM
[2]
  Ki: 11400 nM
[3]
  Ki: 9090 ± 1700 nM

## COc1ccccc1N1CCN(CC(O)CN2C(=O)NC(C)(c3ccc(F)cc3)C2=O)CC1 (centres unmarked) [Compound 1]
[1]
  Ki: 715 ± 163 nM
[4]
  Ki: 121 ± 18 nM
[5]; 2.5 mg/kg i.p.
  decrease of immobility time vs vehicle: about 32%
[5]; 5 mg/kg i.p.
  decrease of immobility time vs vehicle: ~25%
[6]; i.p., all doses tested
  anxiolytic-like activity: inactive
[7]; 2.5 mg/kg i.p.
  locomotor activity number of crossings ± SEM during 1 min: 10.50 ± 4.11; NS
  locomotor activity number of crossings ± SEM during 60 min: 183.75 ± 33.41; p < 0.001

## COc1ccccc1N1CCN(C[C@H](O)CN2C(=O)N[C@](C)(c3ccc(F)cc3)C2=O)CC1 [Compound 5.1, (R)-5-(4-Fluorophenyl)-3-((S)-2-hydroxy-3-(4-(2-methoxyphenyl)piperazin-1-yl)propyl)-5-methylimidazolidine-2,4-dione]
[1]
  Ki: 462 ± 94 nM
[4]
  Ki: 939 ± 153 nM

## C[C@@]1(c2ccc(F)cc2)NC(=O)N(C[C@@H](O)CN2CCN(C(c3ccccc3)c3ccccc3)CC2)C1=O [Compound 6.3, (S)-3-((S)-3-(4-Benzhydrylpiperazin-1-yl)-2-hydroxypropyl)-5-(4-fluorophenyl)-5-methylimidazolidine-2,4-dione]
[1]
  Ki: 312 ± 52 nM
[2]
  Ki: 4130 ± 983 nM
[3]
  Ki: 120 ± 27 nM
